Reference: patent US10934523B2, “Method for culture of stem cell” (RIKEN, priority 2008, dated 2021)
“Also recorded” adds a separate entry of the source. Read-outs that look alike come from different tables or passages of the source.

Assays:
Rx-GFP ES cells [1] = assay: Differentiation into hypothalamic progenitor cells by SFEBq/gfCDM, percentage of Rx-GFP+ cells by FACS on day 7; assay type: cell-based, mouse; details: for Rx-GFP positivity rate recovered in the presence of insulin: LY294002 5 μM, Akt inhibitor VIII 2 μM
Procedure: Differentiation culture was performed under the same culturing conditions as Example 13 for 7 days. For analyzing the differentiated cells, an antibody against the Rx protein, which is a hypothalamic and retinal progenitor cell marker, was used. In hypothalamic progenitor cells, in addition to Rx, a protein called nestin is expressed, whereas in retinal progenitor cells, only Rx is expressed but nestin is not expressed, so that hypothalamic progenitor cells were identified by a fluorescent immunostaining method with the co-expression of Rx and nestin as an index.
Furthermore, EB5 cells wherein GFP was knocked in at the Rx gene locus (hereinafter, Rx-GFP ES cells) were prepared, and the expression of Rx-GFP was also analyzed by FACS.
(§1) Differentiation culture was performed under the same culturing conditions as Example 14 for 7 days, and the influence of the addition of insulin to the medium on the differentiation of hypothalamic progenitor cells from ES cells was analyzed by FACS using Rx-GFP ES cells. The intracellular signal transduction of insulin is involved by roughly two pathways (MAPK pathway and PI3K-Akt pathway). […] LY294002, Akt inhibitor VIII, PD98059 or DMSO (vehicle control) was added on day 2 of cultivation.

Human ES cells (KhES #1) = assay: Hypothalamus gene marker expression in human ES cells by modified SFEBq/gfCDM (quantitative PCR, day 31); assay type: cell-based; details: insulin 7 μg/ml, 31 days
[2] = tested on: aggregate masses derived from a mouse ES cell; assay: Ca++ imaging (fluo4-AM) of cerebral neurons produced by the SFEBq method; assay type: cell-based
Procedure: To confirm the activities and network formation of cerebral neurons produced by the SFEBq method, an analysis was performed by a Ca^++ imaging method using fluo4-AM. The method of examination was as described in the literature (Ikegaya et al, 2005, Neurosci. Res., 52, 132-138).
Aggregate masses derived from a mouse ES cell cultured by the method described in Example 1 for 18 days were further cultured on the Transwell culture insert (Corning) using a DMEM/F12 medium supplemented with N2 for 7 days (FIG. 3A, view A). Ca^++ imaging was performed at room temperature using an artificial cerebrospinal fluid.

Rx-GFP ES cells [3] = assay: Dorsal/ventral hypothalamic marker expression in Rx-GFP-positive re-aggregate masses (fluorescent immunostaining, day 13); assay type: cell-based, mouse
Procedure: The cells of each fraction were dispensed to a non-cell-adhesive 96-well culture plate at 2500-5000 cells per well, and further cultured using a DMEM/F12 medium supplemented with 7 g/L glucose, 10% KSR and penicillin/streptomycin for 3 days. […] Three days later, half the medium was replaced with a DFNB medium (a DMEM/F12 supplemented with 7 g/l of glucose, 1×N2 supplement and 1×B27 supplement) supplemented with 10 ng/ml of CNTF, and the cells were further cultured for 3 days.
After cultivation for a total of 13 days, the re-aggregate masses were prepared as frozen sections, and the properties of the differentiated cells were analyzed by a fluorescent immunostaining method. For evaluating the effect of Shh, 30 nM Shh was added from 4 days after the start of cultivation.

Bf1/Venus-mES cells [4] = assay: Layer-specific neuron differentiation of FACS-sorted, re-aggregated SFEBq cerebral progenitors after Notch inhibition (fluorescent immunostaining); assay type: cell-based, mouse; details: further 6 days culture
Procedure: After Bf1/Venus-mES cells were cultured for differentiation for different lengths of periods (9 days or 12 days), the resulting Venus-positive cells were separated by FACS, and rapid re-aggregation (5000 cells/well) was performed using a non-cell-adhesive 96-well culture plate. Starting on the following day, rapid induction of differentiation into neurons was performed by a treatment with the Notch inhibitor DAPT (10 μM; known to promote neuron differentiation; Nelson et al, 2007); after further differentiation culture for 6 days, layer-specific markers were analyzed by a fluorescent immunostaining method (FIG. 6, view A).

[5] = tested on: Mouse ES cells (EB5 and Sox1-GFP ES cells); assay: Nerve differentiation of mouse ES cells by the SFEBq/gfCDM method; assay type: cell-based; details: 15 μg/ml in differentiation medium
Procedure: To induce the differentiation of nerves by suspension culture, ES cells were mono-dispersed using 0.25% trypsin-EDTA (Invitrogen), suspended in 150 μl of a differentiation medium to obtain a cell density of 3000 cells per well on a non-cell-adhesive 96-well culture plate (Lipidure-Coat, NOF Corp.), and incubated at 37° C., 5% CO2 for 5 days.
The differentiation medium used was Iscove's Modified Dulbecco's Medium (IMDM)/Hams F12 1:1 (Invitrogen) supplemented with 1× Chemically-defined lipid concentrate (Invitrogen), monothioglycerol (450 μM; Sigma) and bovine serum albumin (a recrystallization-purified product of >99% purity; Sigma).
Differentiation into nerve progenitor cells was analyzed as described previously (Watanabe et al., Nature Neuroscience, 2005) by FACS using Sox1-GFP ES cells that emit fluorescence when differentiated into nerves. The FACS was performed using FACSAria (Beckton Dickenson) and its data were analyzed using FACSDiva software. Nerve differentiation was also analyzed by a fluorescent immunostaining method using EB5 cells.

SFEBq culture product = assay: qPCR of marker genes in the SFEBq culture product with insulin; assay type: cell-based, mouse; details: insulin treatment
Procedure: The expression of a marker gene is analyzed by, for example, performing quantitative PCR using the 7500 Fast Real-Time PCR System (Applied Biosystems) in accordance with the manufacturer's instructions, and normalizing the obtained data by the expression of GAPDH. The method of quantitative PCR is obvious to those skilled in the art. Alternatively, cells may be manipulated to allow the desired marker gene to be expressed as a fusion protein of a marker gene product and GFP or the like (knocking-in). It is also possible to detect the expression of the protein using an antibody specific for a marker gene product.
as §1

Bf1/Venus-mES cells [6] = assay: Cerebral site-specific differentiation of re-aggregated SFEBq cerebral progenitors with secreted pattern formation factors (fluorescent immunostaining); assay type: cell-based, mouse; details: BMP4 0.5 ng/ml
Procedure: Bf1/Venus-mES cells were cultured for differentiation by the SFEBq method for 7 days, after which the resulting Venus-positive cells were separated by FACS, and rapid re-aggregation (5000 cells/well) was performed using a non-cell-adhesive 96-well culture plate. Secreted pattern formation factors such as Fgf 8b (50 ng/ml), the Fgf receptor inhibitor FGFR3-Fc (50 ng/ml), Wnt3a (20 ng/ml), and BMP4 (0.5 ng/ml) were added thereto, and the cells were cultured for 3 to 12 days. The expression of cerebral part-specific markers was analyzed by a fluorescent immunostain method (FIG. 7A, view A).

[7] = 7 μg/ml insulin, added on day 2
[8] = room temperature, artificial cerebrospinal fluid
[9] = 10 μM treatment after 12 days of differentiation culture

## O=c1[nH]c2ccccc2n1C1CCN(Cc2ccc(-c3nc4cc5[nH]cnc5cc4nc3-c3ccccc3)cc2)CC1 [Akt inhibitor VIII, 1,3-Dihydro-1-(1-((4-(6-phenyl-1H-imidazo[4,5-g]quinoxalin-7-yl)phenyl)methyl)-4-piperidinyl)-2H-benzimidazol-2-one]
Rx-GFP ES cells [1]; [7]
  Rx-GFP positivity rate recovered in the presence of insulin: ~28%
Human ES cells (KhES #1)
  Rx expression without addition of Akt inhibitor VIII, relative to culture with 2 μM from day 9: 50%
  Vax1 expression without addition of Akt inhibitor VIII, relative to culture with 2 μM from day 9: 25%

## N#Cc1cc2[nH]c(=O)c(=O)[nH]c2cc1[N+](=O)[O-] [CNQX]
[2]; [8]
  repeated synchronized Ca++ elevations over a long distance (Ca++ oscillation): inhibited

## CC1=C2C[C@H]3[C@@H](CC=C4C[C@@H](O)CC[C@@]43C)[C@@H]2CC[C@]12O[C@@H]1C[C@H](C)CN[C@H]1[C@H]2C [Cyclopamine, 11-Deoxojervine]
Rx-GFP ES cells [3]
  expression of dorsal/ventral hypothalamus markers compared with the Shh treatment: reverse result

## C[C@H](NC(=O)Cc1cc(F)cc(F)c1)C(=O)N[C@H](C(=O)OC(C)(C)C)c1ccccc1 [DAFT]
Bf1/Venus-mES cells [4]; 10 μM treatment after 9 days of differentiation culture
  cells differentiated into Reelin-positive Cajal-Retzius cells: more than 50%
Bf1/Venus-mES cells [4]; [9]
  Reelin-positive cells: less than 10%
  cells differentiated into Ctip2/Emx1-positive cerebral cortical neurons specific for the 5th layer: more than 60%

## Cl.O=c1cc(N2CCOCC2)oc2c(-c3ccccc3)cccc12 [LY294002, 2-(4-morpholinyl)-8-phenyl-1(4H)-benzopyran-4-one hydrochloride]
Rx-GFP ES cells [1]; [7]
  Rx-GFP positivity rate recovered in the presence of insulin: about 20%

## COc1cccc(-c2cc(=O)c3ccccc3o2)c1N [PD98059]
Rx-GFP ES cells [1]; 7 μg/ml insulin, PD98059 0.5-10 μM, added on day 2
  antagonism of the inhibitory effect of insulin on differentiation into hypothalamic progenitor cells: did not antagonize; also recorded: not noted

## c1ccc2c(Oc3nc(Nc4ccc(N5CCOCC5)cc4)c4ncn(C5CCCCC5)c4n3)cccc2c1 [Purmorphamine, 2-(1-Naphthoxy)-6-(4-morpholinoanilino)-9-cyclohexylpurine]
Rx-GFP ES cells [3]; Cyclopamine treatment, Purmorphamine 0.5 μM in place of Shh
  expression of dorsal/ventral hypothalamus markers compared with the Shh treatment: same effects as with Shh

## NC(=O)CC[C@H](N)C(=O)O [glutamine]
[2]; [8]
  Ca++ elevations synchronized or not synchronized with surrounding cells: enhanced

## O=[Se](O)O [sodium selenite]
Rx-GFP ES cells [1]; concentration in differentiation medium increased from 0.017 mg/L to 0.025 mg/L, control 50-70%
  percentage of Rx-GFP: about 80%

## NC1=N[C@H](O)[C@H]2[C@H]3O[C@]4(O)O[C@@H]([C@@H](O)[C@@]2(N1)[C@@H]4O)[C@]3(O)CO [tetrodotoxin]
[2]
  Ca++ elevations synchronized or not synchronized with surrounding cells: inhibited
  repeated synchronized Ca++ elevations over a long distance (Ca++ oscillation): inhibited

## human apo-transferrin: human apo-transferrin (Sigma), medium additive
[5]
  influence of addition or non-addition on the differentiation results: did not influence

## insulin: insulin added to serum-free medium
Rx-GFP ES cells [1]; 7 μg/ml insulin
  Rx-GFP positivity rate: less than 5%
Rx-GFP ES cells [1]; insulin 7 μg/ml added to gfCDM on day 5 or before
  expression of Rx-GFP, time-window analysis: suppressed
Rx-GFP ES cells [1]; insulin 7 μg/ml present after day 4
  effect on Rx-GFP+%, time-window analysis: decreased substantially
Rx-GFP ES cells [1]; insulin 7 μg/ml present during the first 3 days
  effect on Rx-GFP+%, time-window analysis: almost no inhibitory effect
SFEBq culture product
  expression of a caudal marker: induced moderately
  expression of the most rostral CNS marker: suppressive effect

B1: Wnt3a: protein belonging to the Wnt family, Wnt signal promoter (protein, UniProt P56704 19-352, looked up)
Protein Wnt-3a: SYPIWWSLAVGPQYSSLGSQPILCASIPGLVPKQLRFCRNYVEIMPSVAEGIKIGIQECQHQFRGRRWNCTTVHDSLAIFGPVLDKATRESAFVHAIASAGVAFAVTRSCAEGTAAICGCSSRHQGSPGKGWKWGGCSEDIEFGGMVSREFADARENRPDARSAMNRHNNEAGRQAIASHMHLKCKCHGLSGSCEVKTCWWSQPDFRAIGDFLKDKYDSASEMVVEKHRESRGWVETLRPRYTYFKVPTERDLVYYEASPNFCEPNPETGSFGTRDRTCNVSSHGIDGCDLLCCGRGHNARAERRREKCRCVFHWCCYVSCQECTRVYDVHTCK
Bf1/Venus-mES cells [6]; Wnt3a 20 ng/ml
  cells expressing Otx2 and Lmx1a (hem area markers): 2-30%

B2: BMP4: protein belonging to the BMP family, BMP signal promoter (protein, UniProt P12644 293-408, looked up)
Bone morphogenetic protein 4: SPKHHSQRARKKNKNCRRHSLYVDFSDVGWNDWIVAPPGYQAFYCHGDCPFPLADHLNSTNHAIVQTLVNSVNSSIPKACCVPTELSAISMLYLDEYDKVVLKNYQEMVVEGCGCR
Bf1/Venus-mES cells [6]
  differentiation of choroidal tissue (TTR-positive): noted
